What all share (experiment): NCI anticancer screen, dose series, 48 h
The test system of test [1] is ACHN.
In test [2] the test system is HCC 2998.
For test [3], the system named is HL-60.
In test [4] the test system is K562.
In test [5] the test system is M14.
The subject of test [6] is MDA-MB-231.
Test [7] deals with Malme-3M.
Test [8] relates to NCI-H23.
Test [9] concerns NCI-H460.
Test [10] concerns OVCAR-3.
Test [11] relates to OVCAR-5.
Test [12] relates to SF-268.
Test [13] relates to SNB-75.
In test [14] the test system is SR.
Test [15] relates to UO-31.
Test [16] deals with COLO 205.
The test system of test [17] is EKVX.
The subject of test [18] is HOP-92.
The subject of test [19] is SF-295.

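Dose response: 5 concentrations. Exposure: 48 h. Format: 96-well plates. Endpoint: linear interpolation; highest concentration if not reached. Here, GI50 denotes the concentration required for 50% inhibition of growth.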 Active and inactive are the calls of the source. Rule as the data show it: active = GI50 up to about 1.1 µM and inactive = higher.

In the case of `O=C(/N=N/c1ccccc1Br)NNc1ccccc1Br`, the GI50 was 46.1 µM (inactive) in test [1]; 22.5 µM (inactive) in test [2]; 23.6 µM (inactive) in test [3]; 27.3 µM (inactive) in test [4]; 60.8 µM (inactive) in test [5]; 62.2 µM (inactive) in [6]. The GI50 in test [7] is 38.2 µM (inactive); in test [8], 48.9 µM (inactive); in test [9], 70.3 µM (inactive); in [10] it was 86.3 µM (inactive); in test [11], > 100 µM (inactive); in test [12] it was > 100 µM (inactive). The GI50 in test [13] was > 100 µM (inactive); in test [14], 32.8 µM (inactive); in test [15], 38.9 µM (inactive).

Regarding `O=c1c2ccccc2nc(N/N=C/c2ccc(Cl)cc2)n1-c1ccccc1`, the GI50 in test [1] was > 100 µM (inactive); in test [16], > 100 µM (inactive); in [17] it was > 100 µM (inactive); in test [2], > 100 µM (inactive); in test [3], > 100 µM (inactive); in [18], 98.6 µM (inactive). Further, the GI50 was > 100 µM (inactive) in [4]; > 100 µM (inactive) in test [5]; 93.3 µM (inactive) in [6]; > 100 µM (inactive) in [7]; > 100 µM (inactive) in [8]; 75 µM (inactive) in test [9]. Also, the GI50 in [10] was > 100 µM (inactive); in test [11], > 100 µM (inactive); in [12] it was 80.2 µM (inactive); in test [19], > 100 µM (inactive); in test [13], 0.0269 µM (active); in test [14], > 100 µM (inactive). Besides, in [15], the GI50 is 62.4 µM (inactive).

For `[N-]=[N+]=CC(=O)OCC1SCCCS1`, the GI50 in test [1] was 78.9 µM (inactive); in test [16] it was > 100 µM (inactive); in [17], > 100 µM (inactive); in test [2] it was > 100 µM (inactive); in [3], > 100 µM (inactive); in test [18], > 100 µM (inactive). Besides, the GI50 was > 100 µM (inactive) in test [4]; > 100 µM (inactive) in test [6]; > 100 µM (inactive) in [7]; > 100 µM (inactive) in test [8]; 74.6 µM (inactive) in test [9]; > 100 µM (inactive) in test [10]. In addition, the GI50 in [11], in test [12], in test [19], in test [14] and in [15] was > 100 µM (inactive) each time.

With `O=C1C=CC(=O)C2=C1[C@@H](O)C1CC=CC3C(=O)O[C@@H]2C31` (some centres not stated), the GI50 in test [1] was 36.5 µM (inactive); in [16], 20.3 µM (inactive); in test [17], > 59.6 µM (inactive); in test [2], 18.5 µM (inactive); in [3], 18.2 µM (inactive); in test [18], 26.2 µM (inactive). For the same molecule, the GI50 in test [4] is 18.5 µM (inactive); in [5], 19.6 µM (inactive); in test [7], 19.1 µM (inactive); in test [8] it was 27 µM (inactive); in test [9], > 55.8 µM (inactive); in [10] it was 21 µM (inactive). In addition, the GI50 was 74.3 µM (inactive) in [11]; 43.1 µM (inactive) in [12]; 39.5 µM (inactive) in test [19]; 24.9 µM (inactive) in test [13]; 4.65 µM (inactive) in [14]; 43.1 µM (inactive) in [15].

Regarding `OCC(O)COCn1cc(Cn2ncc3c(SCc4ccccc4)ncnc32)nn1` (configuration not stated), the GI50 in test [1], in test [16], in [17], in test [2], in test [3] and in test [18] was > 100 µM (inactive) in each case. Besides, the GI50 in test [4], in test [5], in test [6], in [8], in test [10] and in test [11] was > 100 µM (inactive) throughout. Besides, the GI50 is 51.4 µM (inactive) in [12], > 100 µM (inactive) in test [19] and > 100 µM (inactive) in [15].

On to `Cc1c(N2C(=O)C(Cl)C2c2ccc(Cl)cc2)c(=O)n(-c2ccccc2)n1C` (configuration not stated), for which the GI50 in test [1] is 23.7 µM (inactive); in test [16] it was > 100 µM (inactive); in test [17] it was 71 µM (inactive); in [3], > 100 µM (inactive); in test [18] it was 60.5 µM (inactive); in [4], 45.5 µM (inactive). The GI50 in test [5] was 62.7 µM (inactive); in test [6], > 100 µM (inactive); in test [7] it was > 100 µM (inactive); in test [8], 23.9 µM (inactive); in [9], > 100 µM (inactive); in [10], 75.3 µM (inactive). Further, the GI50 in test [11] is > 100 µM (inactive); in test [12] it was > 100 µM (inactive); in test [19], > 100 µM (inactive); in test [14], 26.4 µM (inactive); in test [15] it was > 100 µM (inactive).

As for `O=S(=O)(c1ccccc1)n1cc(C[P+](c2ccccc2)(c2ccccc2)c2ccccc2)c2ccccc21`, the GI50 in test [1] was 15.3 µM (inactive); in test [16] it was 1.99 µM (inactive); in test [17], 3.33 µM (inactive); in test [2], 3.36 µM (inactive); in test [3] it was 2.04 µM (inactive); in test [18] it was 1.87 µM (inactive). Besides, the GI50 was 2.65 µM (inactive) in test [4]; 2.64 µM (inactive) in [5]; 4.38 µM (inactive) in test [7]; 2.99 µM (inactive) in test [8]; 2.91 µM (inactive) in test [9]; 2.95 µM (inactive) in test [10]. Also, the GI50 in [11] was 17.2 µM (inactive); in test [12], 5.66 µM (inactive); in test [19], 12 µM (inactive); in test [13] it was 3.25 µM (inactive); in test [14], 5.2 µM (inactive); in test [15], 3.38 µM (inactive).

Turning to `Nc1nc(N)nc(-c2cnccn2)n1`, the GI50 in test [1], in [16], in [17], in [2], in test [18] and in test [4] was > 100 µM (inactive) throughout. In addition, the GI50 in test [5] is > 100 µM (inactive); in [6], 53 µM (inactive); in [7], > 100 µM (inactive); in [8], > 100 µM (inactive); in test [9] it was > 100 µM (inactive); in test [10], > 100 µM (inactive). Further, the GI50 was 57.1 µM (inactive) in test [11]; > 100 µM (inactive) in test [12]; > 100 µM (inactive) in test [19]; > 100 µM (inactive) in test [13]; > 100 µM (inactive) in test [14]; > 100 µM (inactive) in [15].
